# Measured values published in patent US4221805A, “Method of inducing platelet antiaggregation activity” (priority 1978, dated 1980).
# Entries after “also recorded” stand apart in the source; their conditions may differ.
# How the values were obtained:
# [1] = Acute toxicity in mice, oral administration (LD50); type: in vivo; settings: mouse, in vivo
# Protocol: (§1) A total of 240 albino mice, 120 male and 120 female, of the Swiss strain and having an average weight of about 20 grams were used. The animals were divided into groups of 10 animals each, and kept caged for some days in an environment at a constant temperature (21°±1° C.) and humidity (60±5%). They were then fasted for 24 hours before the experiment, but were given free access to water.
# (§2) The substance indicated by MRAP2 was administered, in a single administration, either orally or endoperitoneally. The LD50 was evaluated for each of the administration methods, using the method of Litchfield and Wilcoxon, J.Pharmacology, 96, 99, […], based on the mortality recorded for each group of mice over the seven days following administration.
# (§3) Six groups of 20 animals, 10 male and 10 female, which had been given MRAP2 dissolved in tap water were used, the method utilised being gastric catheterisation.
# mice [2] = experiment: Acute toxicity in mice, oral administration (LD50); type: in vivo; settings: 20 animals per dose
# Protocol: as §1, §2, §3
# [3] = Acute toxicity in mice, endoperitoneal administration (LD50); type: in vivo; settings: mouse, in vivo, ip
# Protocol: as §1, §2
# (§4) Six groups of 20 animals, 10 male and 10 female, which had been given the active principle dissolved in a physiological solution were used.
# mice [4] = experiment: as above; type: in vivo; settings: 20 animals per dose
# Protocol: as §1, §2, §4
# [5] = Acute toxicity in rats, oral administration (LD50); type: in vivo; settings: rat, in vivo
# Protocol: (§5) 200 albino rats, 100 male and 100 female, of the Wistar strain and weighing 130-150 grams were divided into groups of 10 animals each.
# (§6) After being caged for some days at constant temperature (21°±1° C.) and humidity (60±5%), the animals were fasted for 24 hours before treatment.
# (§7) The MRAP2 was administered in a single administration either orally or endoperitoneally, following the method heretofore described.
# (§8) Teh LD50 was evaluated for each method of administration using the Litchfield and Wilcoxon method, based on the percentage mortality recorded in each group of rats during the seven days following treatment.
# (§9) Five groups of 20 animals, 10 male and 10 female were used.
# rats [6] = experiment: Acute toxicity in rats, oral administration (LD50); type: in vivo; settings: 20 animals per dose
# Protocol: as §5, §6, §7, §8, §9
# [7] = Acute toxicity in rats, endoperitoneal administration (LD50); type: in vivo; settings: rat, in vivo, ip
# Protocol: as §5, §6, §7, §8, §9
# rats [8] = experiment: as above; type: in vivo; settings: 20 animals per dose
# Protocol: as §5, §6, §7, §8, §9
# [9] = tested on: cardiovascular system of cats; experiment: Effect on the cardiovascular system of cats; type: in vivo; settings: intravenous 5 mg/kg
# Protocol: Three cats weighing 2.4-2.6 kg were used for this test. The MRAP2 was administered intravenously in a dose of 5 mg/kg, carried in a sterile physiological solution. The animals, under combined anaesthesia with ethylurethane and diallylbarbituric acid, were subjected to measurements, by means of the Battaglia-Rangoni polygraph, of the arterial pressure, the cardiac frequency, the nictitation and the electrocardiac activity, before and up to two hours after the administration of the drug.
# [10] = tested on: human PRP (Platelet Rich Plasma), platelet aggregation induced by ADP; experiment: In vitro platelet antiaggregation activity (Born method, ADP-induced); type: cell-based
# Protocol: The method described by Born (Nature, 194, 927, 1962) was followed for this test, based on the increase in the platelet aggregation induced by ADP. The experiment was conducted using a human PRP (Platelet Rich Plasma) pool from four healthy volunteers who had not taken any drugs for ten days. The PRP was adjusted to 280,000±20,000 and kept at ambient temperature for the entire duration of the test.
# 400 μl of PRP and 100 μl of MRAP2 dissolved in a physiological solution and adjusted to a pH of 7.4 were placed in plastic test tubes. Three doses of the drug in question (0.181, 0.904 and 1.818 mg/ml) were used.
# Three dilutions of aspirin were prepared under the same conditions for use as a comparison drug. Two minutes after contact between the drug and PRP, the test tube was inserted into the aggregometer cell (EEI, Model 169 with Corning Recorder Mod.840). After 60 seconds, ADP (10^-3 mM) was added and the aggregation was recorded. In calculating the antiaggregation activity, reference was made to the maximum amplitude of the aggregation curved obtained with ADP. Assuming this amplitude to be 100, the amplitudes of the curves obtained with the various doses of MRAP2 and aspirin were calculated as a percentage.
smiles,measurement,setting,value
"Cl.Clc1ccccc1CN1CCCC1 [MRAP2, N-(2-chlorobenzyl)-pyrrolidine hydrochloride]",mortality at 168 h,[1]; 300 mg/kg,0%
same,mortality at 168 h,[1]; 400 mg/kg,20%
same,mortality at 168 h,[1]; 500 mg/kg,45%
same,mortality at 168 h,[1]; 600 mg/kg,60%
same,mortality at 168 h,[1]; 800 mg/kg,100%
same,mortality at 168 h,[1]; 1000 mg/kg,100%
same,LD50 at 168 h,"[1]; single administration, 7 days, 95% limits 515-561",536 mg/kg
same,No. of animals dead,mice [2]; 300 mg/kg,0
same,No. of animals dead,mice [2]; 400 mg/kg,4
same,No. of animals dead,mice [2]; 500 mg/kg,9
same,No. of animals dead,mice [2]; 600 mg/kg,12
same,No. of animals dead,mice [2]; 800 mg/kg,20
same,No. of animals dead,mice [2]; 1000 mg/kg,20
same,mortality at 168 h,[3]; 75 mg/kg,0%
same,mortality at 168 h,[3]; 100 mg/kg,10%
same,mortality at 168 h,[3]; 150 mg/kg,90%
same,mortality at 168 h,[3]; 200 mg/kg,100%
same,mortality at 168 h,[3]; 300 mg/kg,100%
same,mortality at 168 h,[3]; 400 mg/kg,100%
same,LD50 at 168 h,"[3]; single administration, 7 days, 95% limits 105-130",116 mg/kg
same,No. of animals dead,mice [4]; 75 mg/kg,0
same,No. of animals dead,mice [4]; 100 mg/kg,2
same,No. of animals dead,mice [4]; 150 mg/kg,18
same,No. of animals dead,mice [4]; 200 mg/kg,20
same,No. of animals dead,mice [4]; 300 mg/kg,20
same,No. of animals dead,mice [4]; 400 mg/kg,20
same,mortality at 168 h,[5]; 400 mg/kg,0%
same,mortality at 168 h,[5]; 500 mg/kg,20%
same,mortality at 168 h,[5]; 600 mg/kg,40%
same,mortality at 168 h,[5]; 800 mg/kg,75%
same,mortality at 168 h,[5]; 1000 mg/kg,100%
same,LD50 at 168 h,"[5]; single administration, 7 days, 95% limits 631-714",675 mg/kg
same,No. of animals dead,rats [6]; 400 mg/kg,0
same,No. of animals dead,rats [6]; 500 mg/kg,4
same,No. of animals dead,rats [6]; 600 mg/kg,8
same,No. of animals dead,rats [6]; 800 mg/kg,15
same,No. of animals dead,rats [6]; 1000 mg/kg,20
same,mortality at 168 h,[7]; 50 mg/kg,0%
same,mortality at 168 h,[7]; 100 mg/kg,5%
same,mortality at 168 h,[7]; 200 mg/kg,55%
same,mortality at 168 h,[7]; 300 mg/kg,85%
same,mortality at 168 h,[7]; 400 mg/kg,100%
same,LD50 at 168 h,"[7]; single administration, 7 days, 95% limits 174-203",188 mg/kg
same,No. of animals dead,rats [8]; 50 mg/kg,0
same,No. of animals dead,rats [8]; 100 mg/kg,1
same,No. of animals dead,rats [8]; 200 mg/kg,11
same,No. of animals dead,rats [8]; 300 mg/kg,17
same,No. of animals dead,rats [8]; 400 mg/kg,20
same,hypertensive effect,[9]; in the four minutes following introduction of the drug,slight hypertensive effect
same,undesirable effects on the cardiovascular system,[9]; up to two hours,does not give rise to any undesirable effects on the cardiovascular system
same,inhibition of platelet aggregation at 181 µg/mL,"[10]; Platelet, ADP 10^-3 mM, drug 0.181 mg/ml",26%
same,activity at 181 µg/mL,"[10]; Platelet, ADP 10^-3 mM, drug 0.181 mg/ml, serum + ADP = 100",74%
same,inhibition of platelet aggregation at 904 µg/mL,"[10]; Platelet, ADP 10^-3 mM, drug 0.904 mg/ml",91%
same,activity at 904 µg/mL,"[10]; Platelet, ADP 10^-3 mM, drug 0.904 mg/ml, serum + ADP = 100",9%
same,inhibition of platelet aggregation at 1818 µg/mL,"[10]; Platelet, ADP 10^-3 mM, drug 1.818 mg/ml",92%
same,activity at 1818 µg/mL,"[10]; Platelet, ADP 10^-3 mM, drug 1.818 mg/ml, serum + ADP = 100",8%
same,platelet antiaggregation activity (in words),"[10]; in vitro, ADP, manifested by the dose of 0.904 mg/ml, comparison with aspirin, hydrochloride",considerable platelet antiaggregation activity; also recorded: clearly superior to that possessed by aspirin
